Assay results reported in patent US20210196654A1, “METHOD OF TREATING CONDITIONS” (Clexio Biosciences Ltd., priority 2019, published 2021).
Where two headings read alike, the source gives them in different places.

What was measured:
[1] = Repeated dose 28 day toxicokinetics; conditions: for AUC(0-inf) / AUC(0-t) / Cmax / half-life / Tmax: Sprague Dawley, rat, in vivo, po; for AUC(0-t): AUC0-t
Experimental: The objective of the study was to assess the potential toxicity, neurobehavioral effects, and toxicokinetics (TK) of esketamine when administered orally, via gavage, to Sprague Dawley rats for 28 days and to evaluate recovery during a 14-day drug-free period. Fifty male and 50 female rats were randomized into 4 groups (15/sex/Groups 1 and 4; 10/sex/Groups 2 and 3). Esketamine was administered via oral gavage once daily for 28 consecutive days to males at 0 (vehicle control), 6, 10 or 30 mg/kg/day and females at 0 (vehicle control), 2, 10 or 20 mg/kg/day in a dose volume of 10 mL/kg. Animals were observed until euthanized and necropsied on Day 29 (10/sex/group) or 43 (5/sex from Groups 1 and 4). Toxicity was evaluated based on mortality, clinical observations, body weights, food consumption, ophthalmology, motor activity, functional observational battery, clinical pathology (clinical chemistry, hematology, coagulation and urinalysis), organ weights, anatomic (macroscopic or microscopic) pathology. Toxicokinetic animals (3/sex/Group 1; 6/sex/Groups 2, 3, and 4) were similarly dosed and bled on Day 1 and during Week 4 for toxicokinetic analysis.

[2] = Single dose crossover study in healthy volunteers, pharmacokinetics; conditions: both, human, plasma; for AUC(0-inf): AUC0-inf; for AUC(0-inf) / AUC(0-t) / Cmax: geometric mean; for AUC(0-t): AUC0-t; for Cmax: 15 subjects; for half-life: t1/2, geometric mean; for Tmax: median
Text: A randomized, open-label 4-way crossover study in 16 healthy male and female subjects was held wherein said subjects were placed in a randomly assigned order and administered esketamine. Each subject was assigned to 1 of 4 treatment sequences according to a randomization code such that 4 subjects were assigned to each treatment sequence. There was a wash-out period of at least 7 days between dosing periods with doses consisting of either oral or intravenous esketamine hydrochloride. The study consisted of an eligibility screening period of 28 days, 4 study periods involving administration of a single dose of esketamine hydrochloride followed by safety assessments with blood sampling for PK purposes up to 72 hours after study drug administration, discharge at 72 hours after study drug administration and a follow-up visit 7-14 days after the last PK blood sample was taken on Day 4.

male Sprague Dawley rats = experiment: 7-day forced swim test; type: in vivo, rat; conditions: for decrease in immobility time: 7 daily doses, test 30 min after dosing
Experimental: Groups of, 6-7 week old, male Sprague Dawley rats were administered esketamine by intraperitoneal injection and their behavioral despair assessed by a forced swim test. The animals, in cohorts of 10, were administered either a single dose of 15mg/kg esketamine, 7 daily doses of either 7.5 or 15 mg/kg esketamine or a vehicle control, and the test performed 30 minutes after dosing. Statistical evaluation was performed using an ordinary One-Way ANOVA, t Test and an Uncorrected Fisher's LSD comparisons test.

[3] = cited from earlier work
liver of Crl:CD(SD) rats = experiment: In vivo single cell gel electrophoresis (comet) assay in liver; conditions: for lower benchmark dose (BMDL50): single slide median Tail Intensity, PROAST
[4] = female, 2 mg/kg, Day 1, female rats, 2 mg/kg oral
[5] = female, 2 mg/kg, Day 28, female rats, 2 mg/kg oral
[6] = female, 10 mg/kg, Day 1, female rats, 10 mg/kg oral
[7] = female, 10 mg/kg, Day 28, female rats, 10 mg/kg oral
[8] = female, 20 mg/kg, Day 1, female rats, 20 mg/kg oral
[9] = female, 20 mg/kg, Day 28, female rats, 20 mg/kg oral
[10] = male, 6 mg/kg, Day 1, male rats, 6 mg/kg oral
[11] = male, 6 mg/kg, Day 28, male rats, 6 mg/kg oral
[12] = male, 10 mg/kg, Day 1, male rats, 10 mg/kg oral
[13] = male, 10 mg/kg, Day 28, male rats, 10 mg/kg oral
[14] = male, 30 mg/kg, Day 1, male rats, 30 mg/kg oral
[15] = male, 30 mg/kg, Day 28, male rats, 30 mg/kg oral
[16] = iv, 0.3 mg/kg, plasma analyte after single dose esketamine 0.3 mg/kg iv
[17] = po, 20 mg, plasma analyte after single dose esketamine 20 mg oral solution
[18] = po, 20 mg, plasma analyte after single dose esketamine 20 mg oral tablet
[19] = po, 100 mg, plasma analyte after single dose esketamine 100 mg oral tablet

CN[C@]1(c2ccccc2Cl)CCCCC1=O [esketamine, (2S)-2-(2-Chlorophenyl)-2-(methylamino) cyclohexanone]
Dose normalized AUC0-inf ([1]; Day 1, female rats, 2 mg/kg oral): 29.0 (ng*h/ml)/(mg/kg) | Dose normalized AUC0-inf ([1]; Day 1, female rats, 10 mg/kg oral): 44.0 (ng*h/ml)/(mg/kg) | Dose normalized AUC0-inf ([1]; Day 1, female rats, 20 mg/kg oral): 49.8 (ng*h/ml)/(mg/kg) | Dose normalized AUC0-inf ([1]; Day 1, male rats, 6 mg/kg oral): 17.2 (ng*h/ml)/(mg/kg) | Dose normalized AUC0-inf ([1]; Day 1, male rats, 10 mg/kg oral): 18.1 (ng*h/ml)/(mg/kg) | Dose normalized AUC0-inf ([1]; Day 1, male rats, 30 mg/kg oral): 19.5 (ng*h/ml)/(mg/kg) | Dose normalized AUC0-t ([1]; Day 28, female rats, 2 mg/kg oral): 31.0 (ng*h/ml)/(mg/kg) | Dose normalized AUC0-t ([1]; Day 28, female rats, 10 mg/kg oral): 51.3 (ng*h/ml)/(mg/kg) | Dose normalized AUC0-t ([1]; Day 28, female rats, 20 mg/kg oral): 53.2 (ng*h/ml)/(mg/kg) | Dose normalized AUC0-t ([1]; Day 28, male rats, 6 mg/kg oral): 10.2 (ng*h/ml)/(mg/kg) | Dose normalized AUC0-t ([1]; Day 28, male rats, 10 mg/kg oral): 17.9 (ng*h/ml)/(mg/kg) | Dose normalized AUC0-t ([1]; Day 28, male rats, 30 mg/kg oral): 19.2 (ng*h/ml)/(mg/kg) | sex difference in exposure ([1]; after normalization for dose level differences): males had lower exposures than females | AUC(0-inf) ([1]; female, 2 mg/kg): 58 ng·h/mL | AUC(0-t) [1, 4]: 57 ng·h/mL | AUC(0-t) [1, 5]: 62 ng·h/mL | Cmax [1, 4]: 67.2 ng/mL | Cmax [1, 5]: 133 ng/mL | half-life ([1]; female, 2 mg/kg, t1/2, Day 1, female rats, 2 mg/kg oral): 30 min | Tmax [1, 4]: 10.2 min | Tmax [1, 5]: 10.2 min | AUC(0-inf) ([1]; female, 10 mg/kg): 440 ng·h/mL | AUC(0-t) [1, 6]: 418 ng·h/mL | AUC(0-t) [1, 7]: 514 ng·h/mL | Cmax [1, 6]: 295 ng/mL | Cmax [1, 7]: 768 ng/mL | half-life ([1]; female, 10 mg/kg, t1/2, Day 1, female rats, 10 mg/kg oral): 42 min | half-life ([1]; female, 10 mg/kg, t1/2, Day 28, female rats, 10 mg/kg oral): 24 min | Tmax [1, 6]: 10.2 min | Tmax [1, 7]: 10.2 min | AUC(0-inf) ([1]; female, 20 mg/kg): 995 ng·h/mL | AUC(0-t) [1, 8]: 993 ng·h/mL | AUC(0-t) [1, 9]: 1060 ng·h/mL | Cmax [1, 8]: 672 ng/mL | Cmax [1, 9]: 1450 ng/mL | half-life ([1]; female, 20 mg/kg, t1/2, Day 1, female rats, 20 mg/kg oral): 54 min | half-life ([1]; female, 20 mg/kg, t1/2, Day 28, female rats, 20 mg/kg oral): 36 min | Tmax [1, 8]: 10.2 min | Tmax [1, 9]: 10.2 min | Cmax Day 28 vs Day 1 ([1]; females): higher on Day 28 | exposure increase with dose ([1]; females, 2 to 20 mg/kg/day): slightly greater than dose-proportional | AUC(0-inf) ([1]; male, 6 mg/kg): 103 ng·h/mL | AUC(0-t) [1, 10]: 99 ng·h/mL | AUC(0-t) [1, 11]: 61 ng·h/mL | Cmax [1, 10]: 109 ng/mL | Cmax [1, 11]: 113 ng/mL | half-life ([1]; male, 6 mg/kg, t1/2, Day 1, male rats, 6 mg/kg oral): 48 min | half-life ([1]; male, 6 mg/kg, t1/2, Day 28, male rats, 6 mg/kg oral): 36 min | Tmax [1, 10]: 10.2 min | Tmax [1, 11]: 10.2 min | AUC(0-inf) ([1]; male, 10 mg/kg): 181 ng·h/mL | AUC(0-t) [1, 12]: 175 ng·h/mL | AUC(0-t) [1, 13]: 179 ng·h/mL | Cmax [1, 12]: 179 ng/mL | Cmax [1, 13]: 211 ng/mL | half-life ([1]; male, 10 mg/kg, t1/2, Day 1, male rats, 10 mg/kg oral): 42 min | half-life ([1]; male, 10 mg/kg, t1/2, Day 28, male rats, 10 mg/kg oral): 36 min | Tmax [1, 12]: 10.2 min | Tmax [1, 13]: 10.2 min | AUC(0-inf) ([1]; male, 30 mg/kg): 585 ng·h/mL | AUC(0-t) [1, 14]: 580 ng·h/mL | AUC(0-t) [1, 15]: 575 ng·h/mL | Cmax [1, 14]: 296 ng/mL | Cmax [1, 15]: 398 ng/mL | half-life ([1]; male, 30 mg/kg, t1/2, Day 1, male rats, 30 mg/kg oral): 72 min | half-life ([1]; male, 30 mg/kg, t1/2, Day 28, male rats, 30 mg/kg oral): 90 min | Tmax [1, 14]: 10.2 min | Tmax [1, 15]: 30 min | exposure increase with dose ([1]; males, 6 to 30 mg/kg/day): generally dose-proportional | AUC(0-inf) [2, 16]: 257 ng·h/mL | AUC(0-t) [2, 16]: 249 ng·h/mL | Cmax [2, 16]: 94.5 ng/mL | half-life [2, 16]: 610 min | Tmax [2, 16]: 60 min | AUC(0-inf) [2, 17]: 25.8 ng·h/mL | AUC(0-inf) [2, 18]: 22.5 ng·h/mL | AUC(0-t) [2, 17]: 23.4 ng·h/mL | AUC(0-t) [2, 18]: 20.1 ng·h/mL | Cmax [2, 17]: 16.5 ng/mL | Cmax [2, 18]: 11.9 ng/mL | half-life [2, 17]: 175 min | half-life [2, 18]: 170 min | Tmax [2, 17]: 30 min | Tmax [2, 18]: 45 min | AUC(0-inf) [2, 19]: 181 ng·h/mL | AUC(0-t) [2, 19]: 173 ng·h/mL | Cmax [2, 19]: 65.3 ng/mL | half-life [2, 19]: 460 min | Tmax [2, 19]: 45 min | decrease in immobility time (male Sprague Dawley rats; 7.5 mg/kg ip): 40% | decrease in immobility time (male Sprague Dawley rats; 15 mg/kg ip): 60% | extent of effect on immobility time (male Sprague Dawley rats; 15 mg/kg ip, single acute dose): 42 % of control | antidepressant-like effect, continuous 7-day treatment vs single dose (male Sprague Dawley rats; same dose levels): stronger antidepressant-like effect than a single acute dose | oral bioavailability ([3]; Fanta et al (2015)): 8% | oral bioavailability ([3]; Peltoniemi et al (2012)): 11% | macroscopic examination (liver of Crl:CD(SD) rats; after 3 doses): no test item related lesions | group mean and median % TI values vs historical control range (liver of Crl:CD(SD) rats; female rats, 25 and 50 mg/kg/day): outside of the current vehicle historical control range | median % TI in liver vs vehicle control (liver of Crl:CD(SD) rats; female rats, 25 and 50 mg/kg/day oral, 3 doses, p<0.001): Statistically significant increases | lower benchmark dose (BMDL50) (liver of Crl:CD(SD) rats; female rats): 9.83 mg/kg/day | DNA strand breaks in the liver, conclusion (liver of Crl:CD(SD) rats; male and female rats, oral gavage): evidence of causing an increase in DNA strand breaks | Hedgehog cells in liver (liver of Crl:CD(SD) rats; male or female rats, any dose level): No Hedgehog cells were observed | group mean and median % TI values vs historical control range (liver of Crl:CD(SD) rats; male rats, 75 mg/kg/day): outside of the current vehicle historical control range | median % tail intensity (TI) in liver vs vehicle control (liver of Crl:CD(SD) rats; male rats, 75 mg/kg/day oral, 3 doses, p<0.001): Statistically significant increases | lower benchmark dose (BMDL50) (liver of Crl:CD(SD) rats; male rats): 27.31 mg/kg/day | liver histopathological examination (liver of Crl:CD(SD) rats; some male animals, 75 mg/kg/day): Increased hepatocellular mitotic figures
